In patent US8372592B2, “High resolution label free analysis of cellular properties” (X-Body, Inc., priority 2008, dated 2013):

Target: VCAM-1 and VLA-4 binding (J6 cells, which express VLA-4) (Homo sapiens, UniProt P05556+P13612)
Details: J6 cells + 1 mM Mn2+; EDTA added at the 110 minute mark; FIG. 4
Procedure: VCAM-1 can be fused or bound to a ZZ-binding domain from Protein A. The ZZ-binding domain will specifically bind to IgG immobilized on the surface of the biosensor. Cells that express VLA-4 will bind to the VCAM-1 adhesion protein, which is bound to IgG immobilized to the surface of the biosensor. Therefore cells expressing an adhesion protein ligand will be immobilized to the biosensor surface.
VCAM-1, which was fused to the ZZ-binding domain of Protein A, was added to a biosensor having IgG immobilized to its surface. J6 cells, which express VLA-4, were added to the biosensor surface. […] The “J6 cells+1 mM Mn^2+” and “Buffer” lines shown in FIG. 4 both contained J6 cells and 1 mM Mn^2+. The “J6 cells and EDTA” line contained J6 cells and EDTA. At the 110 minute mark, EDTA was added to the “J6 cells+1 mM Mn^2+” cells.

Sequence of VCAM-1 and VLA-4 binding (J6 cells, which express VLA-4) (P13612 34-1032): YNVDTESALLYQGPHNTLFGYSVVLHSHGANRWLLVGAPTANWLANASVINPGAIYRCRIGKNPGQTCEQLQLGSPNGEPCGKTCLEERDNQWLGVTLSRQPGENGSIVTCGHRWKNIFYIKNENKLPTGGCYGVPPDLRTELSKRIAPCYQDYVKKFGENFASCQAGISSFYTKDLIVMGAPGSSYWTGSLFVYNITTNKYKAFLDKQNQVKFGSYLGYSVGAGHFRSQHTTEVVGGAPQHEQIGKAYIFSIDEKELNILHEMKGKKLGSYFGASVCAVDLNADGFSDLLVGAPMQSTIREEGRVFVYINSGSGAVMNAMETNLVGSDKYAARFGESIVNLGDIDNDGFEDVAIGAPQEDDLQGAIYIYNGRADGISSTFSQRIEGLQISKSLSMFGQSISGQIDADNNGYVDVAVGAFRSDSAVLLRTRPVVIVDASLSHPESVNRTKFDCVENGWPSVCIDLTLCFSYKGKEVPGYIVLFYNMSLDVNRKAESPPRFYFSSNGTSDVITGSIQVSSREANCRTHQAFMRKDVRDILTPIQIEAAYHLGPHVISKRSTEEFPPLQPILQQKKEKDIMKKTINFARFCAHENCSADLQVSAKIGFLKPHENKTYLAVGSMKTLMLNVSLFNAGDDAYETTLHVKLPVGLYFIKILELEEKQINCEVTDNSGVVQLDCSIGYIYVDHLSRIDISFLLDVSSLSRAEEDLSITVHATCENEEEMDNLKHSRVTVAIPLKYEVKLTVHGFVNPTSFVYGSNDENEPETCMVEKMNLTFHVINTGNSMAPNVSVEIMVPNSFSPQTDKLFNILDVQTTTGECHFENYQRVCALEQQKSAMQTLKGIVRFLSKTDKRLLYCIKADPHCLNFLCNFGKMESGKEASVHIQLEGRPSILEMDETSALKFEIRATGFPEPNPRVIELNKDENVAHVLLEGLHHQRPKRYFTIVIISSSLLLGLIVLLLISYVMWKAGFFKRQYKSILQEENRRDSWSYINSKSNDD
Sequence of VCAM-1 and VLA-4 binding (J6 cells, which express VLA-4) (P05556 21-798): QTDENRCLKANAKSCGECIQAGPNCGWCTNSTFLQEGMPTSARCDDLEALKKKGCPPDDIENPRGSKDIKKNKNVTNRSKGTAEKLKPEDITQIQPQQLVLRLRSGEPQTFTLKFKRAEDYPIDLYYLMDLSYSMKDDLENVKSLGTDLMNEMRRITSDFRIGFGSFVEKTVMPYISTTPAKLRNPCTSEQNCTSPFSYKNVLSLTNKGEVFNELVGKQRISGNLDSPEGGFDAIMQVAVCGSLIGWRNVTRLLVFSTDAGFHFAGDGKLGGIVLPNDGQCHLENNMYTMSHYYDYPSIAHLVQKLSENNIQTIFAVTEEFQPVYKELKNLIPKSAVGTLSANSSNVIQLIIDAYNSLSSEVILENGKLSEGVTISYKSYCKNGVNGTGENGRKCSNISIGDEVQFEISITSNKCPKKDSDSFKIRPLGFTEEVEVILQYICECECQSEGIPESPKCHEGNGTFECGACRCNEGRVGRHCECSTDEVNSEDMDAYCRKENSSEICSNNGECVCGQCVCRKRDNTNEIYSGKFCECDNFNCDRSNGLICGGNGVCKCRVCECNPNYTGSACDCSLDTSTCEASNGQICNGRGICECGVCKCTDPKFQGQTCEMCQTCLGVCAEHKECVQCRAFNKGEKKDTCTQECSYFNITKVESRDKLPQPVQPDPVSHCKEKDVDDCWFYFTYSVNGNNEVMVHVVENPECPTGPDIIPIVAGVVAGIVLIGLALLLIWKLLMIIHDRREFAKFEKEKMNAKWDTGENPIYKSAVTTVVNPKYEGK

amount of binding of cells to the VCAM-1 immobilized to the surface of the biosensor: quickly dropped off
SMILES: O=C(O)CN(CCN(CC(=O)O)CC(=O)O)CC(=O)O [EDTA]
